Test results taken from US20070219213A1, “Use of Adrenergic N-Phenylpiperazine Antagonists, Pahrmaceutical Compositions Containning Them, and Methods of Preparing Them” (priority 2004, published 2007).
Entries after “also recorded” stand apart in the source; their conditions may differ.

Tests used:
α1A = biological target: T1, α1A (Oryctolagus cuniculus, UniProt O02824); experiment: Binding study in rabbit liver
T1 construct: from tissue
T1 sequence (O02824 1-466): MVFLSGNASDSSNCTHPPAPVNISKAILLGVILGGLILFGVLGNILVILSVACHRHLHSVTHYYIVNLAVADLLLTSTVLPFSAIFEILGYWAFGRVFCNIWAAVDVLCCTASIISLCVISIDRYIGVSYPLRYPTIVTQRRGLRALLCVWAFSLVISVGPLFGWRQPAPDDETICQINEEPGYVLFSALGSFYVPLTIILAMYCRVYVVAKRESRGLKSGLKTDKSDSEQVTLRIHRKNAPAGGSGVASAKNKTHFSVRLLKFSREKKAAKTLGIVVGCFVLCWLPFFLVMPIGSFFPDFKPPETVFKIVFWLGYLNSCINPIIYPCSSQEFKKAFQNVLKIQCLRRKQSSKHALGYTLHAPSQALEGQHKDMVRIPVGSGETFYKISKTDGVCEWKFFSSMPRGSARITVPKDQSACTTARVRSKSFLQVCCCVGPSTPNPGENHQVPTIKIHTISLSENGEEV

[1] = test system: phenylephrine vasopressor effects; experiment: Inhibition of phenylephrine vasopressor effects in anesthetized rabbits; assay type: in vivo; conditions: rabbit, i.v., versus control curve
Protocol: Animal and Homodynamic Measurements:
The experiments were performed with male rabbits weighing 3 kg, from the CECAL (Centro de Criação de Animais de Laboratório) at Fundação Oswaldo Cruz. The animals were anesthetized with sodium pentobarbital (40 mg/kg) in the ear marginal vein, and anesthesia maintenance was obtained with supplemental intravenous (i.v.) doses of 5 mg/kg as necessary. The […] were tracheomized, inserted with a polyethylene canule, and immobilized with pancuronium bromide (1 mg/kg, i.v.), with supplemental doses of 0.2 mg/kg for each hour of experiment and artificially ventilated with a mechanical fan (Rodent ventilator 7025, Ugo Basile) with a volume of 10 ml/kg and frequency from 40 to 50 incursions/min. The right femoral vein was catheterized for drug administration.
The arterial pressure was monitored through abdominal aorta catheter via the right femoral artery and connected to a quartz transductor Hewlett Packard (1290 A), which was connected to an arterial pressure processor and recorder Hewlett Packard (system 7754 with amplifier 8805 B).
The systolic (SAP) and diastolic (DAP) arterial pressures were obtained directly from the records and the average arterial pressure (AAP) was calculated by DAP's Sum with a third of the differential pressure [[…]]. The cardiac frequency was determined by counting the pressure waves, visualized with the speed increase of the recorder paper.
The cardiac debit (DC) was monitored using an electromagnetic probe, connected to a Skalar flowmeter model MDL 1401. After left thoraxatomy, between the second and third ribs, was made an incision in the pericardium and the heart was exposed to enable the visualization and dissection of the ascending aorta for installation of the electromagnetic probe. The systemic vascular resistance (SVR) was calculated as a quotient of the average arterial pressure by the cardiac debit, multiplied by a conversion factor 80 (SVR=AAP/DC×80) and expressed in dyn/seg/cm-5.
At the conclusion of the anesthetic-surgical procedures, a 15-minute period was allowed for stabilization of the homodynamic parameters. Before any pharmacological manipulation the average arterial pressure, cardiac frequency and cardiac debit measurements were obtained. These values were considered basal homodynamic values.
Dose-Response Curve of the Phenylephrine Vasopressor Effect:
After surgical procedures and stabilization of the homodynamic parameters, a dose-response curve of the phenylephrine pressure effects was performed ([…], i.v.), that were named control curves. […]
The results were expressed as average±standard deviation (E.P.M.) The administration effects of LASSBio 772 with regard to the basal values were analyzed through variance analysis (ANOVA) for repeated measurements. […]

[2] = biological target: T2, beta 2 adrenergic receptors (Cavia porcellus, UniProt Q8K4Z4); experiment: Salbutamol relaxation of cobaio trachea pre-contracted with carbacol; assay type: cell-based, guinea pig; conditions: salbutamol 10^−10-3.3×10^−5 M, strips pre-contracted with carbacol 10 microM, n=4
T2 construct: from tissue; host or cells: guinea pig trachea strips pre-contracted with carbachol
From the text: Selectivity Assay for Protein G-Coupled, Beta-Adrenergic, Muscarinic Cholinergic and Histaminergic Bioreceptors
Determination of the Inhibitory Potency (IC50) of LASSBio 772 on Vasoconstriction of the Cobaio (Guinea Pig) Trachea
Cobaios albinos from both sexes, weighing between 400 and 600 g were used in this experiment. The animals were sacrificed by cervical displacement and posterior bleed. Then, their tracheas were removed, kept in 5 microM indometacin added Krebs-Henseleit physiologic solution and oxygenated with carbogenic mixture (95% O2 and 5% CO2), proceeding the removal of the connective and adhered adipose tissue. From these tracheas were obtained segments with 4-6 rings, that are sectioned in the opposite side of the smooth musculature, originating strips used in the contractions assay (ARAKIDA et al., J. Pharmacol. Exper. Therap., 287: 633-639, 1998). […]
After the period, the organ is treated with agonists that will induce contractions. […] The tissue viability was evaluated by contraction induction with histamine 100 microM or carbacol 10 microM. […]
In another experiment the compound was evaluated for its capability to inhibit the relaxation produced by salbutamol (10^−10-3.3×10^−5 M), beta 2 adrenergic agonist, in strips of cobaio trachea pre-contracted with carbacol (10 microM).

T2 sequence (Q8K4Z4 whole entry): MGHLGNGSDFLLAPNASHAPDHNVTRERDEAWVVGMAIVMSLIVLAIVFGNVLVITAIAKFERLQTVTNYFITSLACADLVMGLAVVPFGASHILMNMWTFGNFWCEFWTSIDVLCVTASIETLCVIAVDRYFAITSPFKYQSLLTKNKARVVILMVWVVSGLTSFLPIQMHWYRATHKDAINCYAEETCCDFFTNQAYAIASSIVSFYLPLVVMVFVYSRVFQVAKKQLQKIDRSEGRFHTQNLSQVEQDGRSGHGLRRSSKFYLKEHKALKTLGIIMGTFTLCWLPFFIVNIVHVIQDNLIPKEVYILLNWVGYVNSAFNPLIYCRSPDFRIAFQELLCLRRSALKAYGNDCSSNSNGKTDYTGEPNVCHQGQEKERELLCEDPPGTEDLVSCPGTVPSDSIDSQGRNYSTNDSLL

For `COc1ccccc1N1CCN(CCc2ccc3c(c2)OCO3)CC1` [LASSBio 772, 1-(2-1,3-Benzodioxol-5-yl-ethyl)-4-(2-methoxy-phenyl)-piperazine], the IC50 (α1A) was 4.9 nM, the “blockade of phenylephrine effects” value [1] was “significantly blocked; also recorded: prevented the phenylephrine hypo-tensor effect” and the “inhibition of the relaxation produced by salbutamol” value [2] was “not able to inhibit significantly the relaxing effect of salbutamol; also recorded: did not present any activity”.
